The supplement of paper PMC10307832

Assays:
Experiment in all cases: relative viability (nuclei count vs DMSO), 5 days (fraction); higher = more cells survive
TPCA-1 + Tozasertib = compound: C1=CC(=CC=C1C2=CC(=C(S2)NC(=O)N)C(=O)N)F [TPCA-1] + Cc1cc(Nc2cc(N3CCN(C)CC3)nc(Sc3ccc(NC(=O)C4CC4)cc3)n2)n[nH]1 [Tozasertib] (partner 0.1 µM)
In short: (§1)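 The day after seeding in 1536-well plates, lung cancer cell lines were treated by pin tool with a single drug, or with a fixed anchor-drug dose together with five library-drug doses (not always all listed) in √10 steps. After 5 days, a combined fix-and-stain solution (final 0.05% Triton X-100, 1% formaldehyde, 1 ug/ml Hoechst) was added. Nuclei counted on 4× images gave relative viability as treated counts over vehicle counts, reported as the median of duplicate plates.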

TPCA-1 + Luminespib = compound: C1=CC(=CC=C1C2=CC(=C(S2)NC(=O)N)C(=O)N)F [TPCA-1] + CCNC(=O)c1noc(-c2cc(C(C)C)c(O)cc2O)c1-c1ccc(CN2CCOCC2)cc1 [Luminespib] (partner 0.01 µM)
In short: as §1

Lestaurtinib + AZD7762 = compound: C[C@]12O[C@H](C[C@]1(O)CO)n1c3ccccc3c3c4c(c5c6ccccc6n2c5c31)CNC4=O [Lestaurtinib] + NC(=O)Nc1cc(-c2cccc(F)c2)sc1C(=O)N[C@H]1CCCNC1 [AZD7762] (partner 0.2 µM)
In short: as §1

[1] = compound: C1/C(=C\C2=CC=CS2)/C(=O)/C(=C/C3=CC=CS3)/C1 + Cc1cc(Nc2cc(N3CCN(C)CC3)nc(Sc3ccc(NC(=O)C4CC4)cc3)n2)n[nH]1 [Tozasertib] (partner 0.1 µM)
In short: as §1

Cell Line	relative viability (TPCA-1 + Tozasertib; first compound 0.04 µM)	relative viability (TPCA-1 + Tozasertib; first compound 0.1265 µM)	relative viability (TPCA-1 + Tozasertib; first compound 0.4 µM)	relative viability (TPCA-1 + Tozasertib; first compound 1.265 µM)	relative viability (TPCA-1 + Tozasertib; first compound 4 µM)	relative viability (TPCA-1 + Luminespib; first compound 0.04 µM)	relative viability (TPCA-1 + Luminespib; first compound 0.1265 µM)	relative viability (TPCA-1 + Luminespib; first compound 0.4 µM)	relative viability (TPCA-1 + Luminespib; first compound 1.265 µM)	relative viability (TPCA-1 + Luminespib; first compound 4 µM)	relative viability (Lestaurtinib + AZD7762; first compound 0.005 µM)	relative viability (Lestaurtinib + AZD7762; first compound 0.01581 µM)	relative viability (Lestaurtinib + AZD7762; first compound 0.05 µM)	relative viability (Lestaurtinib + AZD7762; first compound 0.1581 µM)	relative viability (Lestaurtinib + AZD7762; first compound 0.5 µM)	relative viability ([1]; first compound 0.2 µM)	relative viability ([1]; first compound 0.6325 µM)	relative viability ([1]; first compound 2 µM)	relative viability ([1]; first compound 6.325 µM)	relative viability ([1]; first compound 20 µM)
NCI-H1944	0.239	0.252	0.239	0.247	0.208	0.872	0.663	0.71	0.626	0.513	0.609	0.514	0.623	0.487	0.228	0.282	0.248	0.259	0.241	0.236
NCI-H2347	0.527	0.52	0.454	0.599	0.336	0.694	0.33	0.344	0.453	0.242	0.7	0.83	0.648	0.568	0.466	0.666	0.574	0.596	–	0.738
201T	0.958	0.924	1.05	0.976	0.636	1.1	1.07	1.07	1.05	0.967	0.589	0.656	0.53	0.92	0.776	0.959	0.968	1	0.897	0.911
PC-14	0.587	0.55	0.58	0.585	0.28	0.133	0.165	0.177	0.146	0.143	0.336	0.57	0.362	0.248	0.146	0.604	0.59	0.597	0.571	0.595
NCI-H727	0.558	0.719	0.693	0.661	0.492	0.531	0.453	0.439	0.487	0.432	0.564	0.633	0.522	–	0.452	0.725	0.619	0.627	0.478	0.536
NCI-H2342	0.437	0.438	0.499	0.617	0.391	0.921	0.66	0.819	0.754	0.694	0.473	0.51	0.469	0.583	0.407	0.521	0.567	0.561	0.443	0.459
ChaGo-K-1	0.232	0.237	0.251	0.226	0.207	0.766	0.689	0.698	0.453	0.302	0.924	0.834	0.775	0.816	0.461	0.241	0.235	0.259	0.212	0.197
HOP-62	0.368	0.367	0.392	0.292	0.27	0.98	0.924	0.93	0.893	0.812	0.56	0.657	0.323	0.609	0.313	0.368	0.39	0.348	0.302	0.39
NCI-H1915	0.435	0.428	0.435	0.362	0.229	0.883	0.804	0.754	0.852	0.581	0.751	0.745	0.655	0.52	0.24	0.428	0.456	0.447	0.422	0.446
BEN	0.548	–	0.526	0.628	0.403	0.329	0.358	0.405	0.492	0.191	0.674	0.818	0.634	0.625	0.341	0.474	0.506	0.506	0.52	0.6
NCI-H1437	0.434	0.39	0.42	0.385	0.372	1.04	1.14	1.03	1.12	1.2	1.13	1.2	0.941	1.12	0.945	0.408	0.413	0.452	0.273	0.407
EMC-BAC-2	0.251	0.306	0.302	0.498	0.25	1.24	1.13	1.16	1.35	1.13	1.07	1.12	0.842	0.441	0.346	0.267	0.339	0.298	0.293	0.48
NCI-H647	0.262	0.198	0.348	0.129	0.164	0.149	0.192	0.157	0.102	0.134	0.307	0.756	0.275	0.165	0.0697	0.382	0.379	0.296	0.271	0.238
LXF-289	0.248	0.203	0.201	0.169	0.122	0.787	0.649	0.748	0.703	0.596	1.12	1.14	0.801	0.864	0.17	0.196	0.207	0.193	0.151	0.178
LOU-NH91	0.769	0.57	0.639	0.602	0.423	0.346	0.254	0.397	0.255	0.318	0.688	0.754	0.573	0.524	0.378	0.755	0.705	0.657	0.604	0.596
NCI-H23	0.303	0.348	0.332	0.308	0.248	0.199	0.208	0.219	0.196	0.193	0.213	0.257	0.227	0.246	0.203	0.374	0.394	0.373	0.421	0.323

Cell Line	relative viability (TPCA-1 + Tozasertib; first compound 0.04 µM)	relative viability (TPCA-1 + Tozasertib; first compound 0.1265 µM)	relative viability (TPCA-1 + Tozasertib; first compound 0.4 µM)	relative viability (TPCA-1 + Tozasertib; first compound 1.265 µM)	relative viability (TPCA-1 + Tozasertib; first compound 4 µM)	relative viability (TPCA-1 + Luminespib; first compound 0.04 µM)	relative viability (TPCA-1 + Luminespib; first compound 0.1265 µM)	relative viability (TPCA-1 + Luminespib; first compound 0.4 µM)	relative viability (TPCA-1 + Luminespib; first compound 1.265 µM)	relative viability (TPCA-1 + Luminespib; first compound 4 µM)	relative viability (Lestaurtinib + AZD7762; first compound 0.005 µM)	relative viability (Lestaurtinib + AZD7762; first compound 0.01581 µM)	relative viability (Lestaurtinib + AZD7762; first compound 0.05 µM)	relative viability (Lestaurtinib + AZD7762; first compound 0.1581 µM)	relative viability (Lestaurtinib + AZD7762; first compound 0.5 µM)	relative viability ([1]; first compound 0.2 µM)	relative viability ([1]; first compound 0.6325 µM)	relative viability ([1]; first compound 2 µM)	relative viability ([1]; first compound 6.325 µM)	relative viability ([1]; first compound 20 µM)
NCI-H1993	0.573	0.562	0.655	0.606	0.559	0.694	0.688	0.783	1.29	0.669	0.581	0.553	0.619	0.632	0.47	0.567	0.556	0.594	0.559	0.506
HCC-827	0.472	0.42	0.389	0.443	0.272	0.675	0.496	0.531	0.598	0.201	0.198	0.196	0.219	0.189	0.18	0.414	0.405	0.441	0.44	0.503
NCI-H650	0.707	0.708	0.734	0.546	0.256	0.858	0.788	0.849	0.499	0.328	0.939	1.07	0.706	0.687	0.302	0.857	0.716	0.675	0.689	0.786
CAL-12T	0.327	0.299	0.257	0.236	0.206	0.462	0.351	0.196	0.294	0.194	0.573	0.813	0.557	0.599	0.54	0.334	0.32	0.356	0.256	0.309
NCI-H838	0.257	0.232	0.249	0.217	0.223	0.349	0.398	0.235	0.268	0.223	1.01	0.951	0.933	0.873	0.681	0.295	0.264	0.321	0.216	0.231
RERF-LC-KJ	0.556	0.518	0.61	0.43	0.29	1.3	1.25	1.26	1.14	0.852	1.1	1.16	0.729	0.984	0.61	0.475	0.566	0.533	0.46	0.455
HCC-44	1.07	0.937	0.889	–	0.294	0.958	1.03	1.02	–	0.983	0.949	1.08	1.09	1.14	0.75	1.04	0.609	0.928	0.837	0.923
A-427	0.231	0.211	0.192	0.161	0.147	1.01	0.873	0.935	0.902	0.637	0.712	0.755	0.645	0.433	0.215	0.185	0.22	0.248	0.176	0.216
SW 900	0.612	0.556	0.56	0.485	0.245	0.179	0.176	0.212	0.201	0.176	0.632	0.561	0.555	0.702	0.614	0.514	0.567	0.558	0.618	0.584
NCI-H322M	0.523	0.464	0.462	0.416	0.303	1	0.812	0.984	1.01	0.366	0.511	0.538	–	0.517	0.479	0.533	0.439	0.474	0.454	0.483
ABC-1	0.153	0.199	0.137	0.163	0.142	1.24	0.477	0.34	0.665	0.47	0.59	1.09	0.692	0.76	0.593	0.182	0.17	0.195	0.195	0.218
LK-2	0.167	0.176	0.187	0.172	0.16	0.216	0.188	0.216	0.175	0.167	0.388	0.523	0.272	0.276	0.135	0.157	0.155	0.196	0.168	0.175
NCI-H596	0.834	0.689	0.916	0.86	0.759	0.988	1.08	0.897	1.11	1.08	1.13	0.95	0.893	1.13	1.05	0.726	0.865	1.11	0.855	0.995
NCI-H1793	0.33	–	0.307	0.235	0.165	0.173	–	0.142	0.142	0.134	0.406	0.485	0.357	0.422	0.303	0.394	0.297	0.347	0.338	0.258
NCI-H2405	0.753	0.75	0.765	0.754	0.555	0.792	0.627	0.709	0.622	0.618	0.746	0.885	0.492	0.662	0.218	0.775	0.774	0.862	0.72	0.76
LCLC-103H	0.488	0.405	0.515	0.513	0.321	0.97	0.99	0.852	0.965	0.752	0.924	0.785	0.635	0.633	0.452	0.485	0.47	0.517	0.465	0.451
